# Measured values published in US6737383B1, “Herbicidal oxadiazolidines” (priority 1999, dated 2004).
# Experiments:
# giant foxtail = assay: Test B pre/postemergence giant foxtail; assay type: in vivo, Setaria faberii
# How it was run: (§1)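 Response is a visual 0-to-10 score relative to untreated plants, where 0 means no effect and 10 means complete control, taken twelve to sixteen days after application. Treatments went onto soil at planting and onto foliage of 1- to 4-leaf plants, using a surfactant-containing non-phytotoxic solvent.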
# cocklebur = assay: Test B pre/postemergence cocklebur; assay type: in vivo, Xanthium strumarium
# How it was run: as §1
# purple nutsedge = assay: Test B pre/postemergence purple nutsedge; assay type: in vivo, Cyperus rotundus
# How it was run: as §1
# velvetleaf = assay: Test B pre/postemergence velvetleaf; assay type: in vivo, Abutilon theophrasti
# How it was run: as §1
# soybean = assay: Test B pre/postemergence soybean; assay type: in vivo, Glycine max
# How it was run: as §1
# sugar beet = assay: Test B pre/postemergence sugar beet; assay type: in vivo, Beta vulgaris
# How it was run: as §1
# morningglory = assay: Test B pre/postemergence morningglory; assay type: in vivo, Ipomoea hederacea
# How it was run: as §1
# wild oat = assay: Test B pre/postemergence wild oat; assay type: in vivo, Avena fatua
# How it was run: as §1
# blackgrass = assay: Test B pre/postemergence blackgrass; assay type: in vivo, Alopecurus myosuroides
# How it was run: as §1
# wheat = assay: Test B pre/postemergence wheat; assay type: in vivo, Triticum aestivum
# How it was run: as §1
# surinam grass = assay: Test B pre/postemergence surinam grass; assay type: in vivo, Brachiaria decumbens
# How it was run: as §1
# pigweed = assay: Test B pre/postemergence pigweed; assay type: in vivo, Amaranthus retroflexus
# How it was run: as §1
# rape = assay: Test B pre/postemergence rape; assay type: in vivo, Brassica napus
# How it was run: as §1
# bedstraw = assay: Test B pre/postemergence bedstraw; assay type: in vivo, Galium aparine
# How it was run: as §1
# crabgrass = assay: Test B pre/postemergence crabgrass; assay type: in vivo, Digitaria sanguinalis
# How it was run: as §1
# corn = assay: Test B pre/postemergence corn; assay type: in vivo, Zea mays
# How it was run: as §1
# [1] = Postemergence, Rate 125 g/ha, scale of 0 to 10 where 0 is no effect and 10 is complete control
# [2] = Postemergence, Rate 250 g/ha, scale 0 to 10, 0 no effect, 10 complete control
# [3] = Preemergence, Rate 31 g/ha, visual rating, scale 0 to 10 (0 no effect, 10 complete control)
# [4] = Preemergence, Rate 62 g/ha, scale 0 to 10 (0 no effect, 10 complete control)
# [5] = Preemergence, Rate 125 g/ha, scale 0 to 10 (0 no effect, 10 complete control)
# [6] = Preemergence, Rate 250 g/ha, scale of 0 to 10 where 0 is no effect and 10 is complete control
# [7] = Rate 31 g/ha, Postemergence, scale 0 to 10
# [8] = Rate 62 g/ha, Postemergence, scale of 0 to 10 where 0 is no effect and 10 is complete control
# [9] = Preemergence, Rate 125 g/ha, 0 is no effect, 10 is complete control
# [10] = Rate 250 g/ha, Postemergence, scale 0 to 10, 0 is no effect, 10 is complete control
# [11] = Postemergence, Rate 62 g/ha, scale 0 to 10, 0 is no effect, 10 is complete control
# [12] = Rate 125 g/ha, Postemergence, scale 0 to 10, 0 no effect, 10 complete control
# [13] = Preemergence, Rate 62 g/ha, scale of 0 to 10 where 0 is no effect and 10 is complete control
# [14] = Preemergence, Rate 125 g/ha, scale of 0 to 10 where 0 is no effect and 10 is complete control
# [15] = Preemergence, Rate 250 g/ha, scale 0 (no effect) to 10 (complete control)
# [16] = Rate 500 g/ha, Preemergence, scale 0 to 10 (0 no effect, 10 complete control)
compound,measurement,setting,value
Cc1onc(-c2ccccc2)c1-n1c(=O)on(C(=O)N(c2ccc(F)cc2)C(C)C)c1=O [Compound 100],Giant foxtail plant response rating,giant foxtail; [1],0
same,Giant foxtail plant response rating,giant foxtail; [2],0
same,Giant foxtail plant response rating,giant foxtail; [3],0
same,Giant foxtail plant response rating,giant foxtail; [4],0
same,"Plant response rating, Giant foxtail",giant foxtail; [5],0
same,"Plant response rating, Giant foxtail",giant foxtail; [6],0
same,Giant foxtail plant response rating,giant foxtail; [7],0
same,Giant foxtail plant response rating,giant foxtail; [8],0
same,Cocklebur plant response rating,cocklebur; [1],0
same,Cocklebur plant response rating,cocklebur; [2],0
same,Cocklebur plant response rating,cocklebur; [3],0
same,Cocklebur plant response rating,cocklebur; [4],0
same,"Plant response rating, Cocklebur",cocklebur; [5],0
same,"Plant response rating, Cocklebur",cocklebur; [6],0
same,Cocklebur plant response rating,cocklebur; [7],0
same,Cocklebur plant response rating,cocklebur; [8],0
same,Nutsedge plant response rating,purple nutsedge; [1],0
same,Nutsedge plant response rating,purple nutsedge; [2],0
same,Nutsedge plant response rating,purple nutsedge; [3],0
same,Nutsedge plant response rating,purple nutsedge; [4],0
same,"Plant response rating, Nutsedge",purple nutsedge; [5],0
same,"Plant response rating, Nutsedge",purple nutsedge; [6],0
same,Nutsedge plant response rating,purple nutsedge; [7],0
same,Nutsedge plant response rating,purple nutsedge; [8],0
same,Velvetleaf plant response rating,velvetleaf; [1],0
same,Velvetleaf plant response rating,velvetleaf; [3],0
same,Velvetleaf plant response rating,velvetleaf; [4],0
same,Velvetleaf plant response rating (0 to 10 scale),velvetleaf; [9],0
same,"Plant response rating, Velvetleaf",velvetleaf; [6],0
same,Velvetleaf plant response rating,velvetleaf; [8],0
same,"Plant response rating, Velvetleaf",velvetleaf; [10],0
same,Soybean plant response rating,soybean; [1],0
same,Soybean plant response rating,soybean; [3],0
same,Soybean plant response rating,soybean; [4],0
same,"Plant response rating, Soybean",soybean; [5],0
same,"Plant response rating, Soybean",soybean; [6],0
same,Soybean plant response rating,soybean; [8],0
same,"Plant response rating, Soybean",soybean; [10],0
same,Sugarbeets plant response rating,sugar beet; [1],0
same,Sugarbeets plant response rating,sugar beet; [3],0
same,Sugarbeets plant response rating,sugar beet; [4],0
same,Sugarbeets plant response rating (0 to 10 scale),sugar beet; [9],0
same,"Plant response rating, Sugarbeets",sugar beet; [6],0
same,Sugarbeets plant response rating,sugar beet; [8],0
same,"Plant response rating, Sugarbeets",sugar beet; [10],0
same,Morningglory plant response rating,morningglory; [1],0
same,Morningglory plant response rating,morningglory; [2],0
same,Morningglory plant response rating,morningglory; [3],0
same,Morningglory plant response rating,morningglory; [4],0
same,"Plant response rating, Morningglory",morningglory; [5],0
same,"Plant response rating, Morningglory",morningglory; [6],0
same,Morningglory plant response rating,morningglory; [7],0
same,Morningglory plant response rating,morningglory; [8],0
same,Wild oats plant response rating,wild oat; [1],0
same,Wild oats plant response rating,wild oat; [3],0
same,Wild oats plant response rating,wild oat; [4],0
same,Wild oats plant response rating (0 to 10 scale),wild oat; [9],0
same,"Plant response rating, Wild oats",wild oat; [6],0
same,Wild oats plant response rating,wild oat; [8],0
same,"Plant response rating, Wild oats",wild oat; [10],0
same,Blackgrass plant response rating,blackgrass; [1],0
same,Blackgrass plant response rating,blackgrass; [2],0
same,Blackgrass plant response rating,blackgrass; [3],0
same,Blackgrass plant response rating,blackgrass; [4],0
same,"Plant response rating, Blackgrass",blackgrass; [5],0
same,"Plant response rating, Blackgrass",blackgrass; [6],0
same,Blackgrass plant response rating,blackgrass; [7],0
same,Blackgrass plant response rating,blackgrass; [8],0
same,Wheat plant response rating,wheat; [1],0
same,Wheat plant response rating,wheat; [3],0
same,Wheat plant response rating,wheat; [4],0
same,Wheat plant response rating (0 to 10 scale),wheat; [9],0
same,"Plant response rating, Wheat",wheat; [6],0
same,Wheat plant response rating,wheat; [8],0
same,"Plant response rating, Wheat",wheat; [10],0
same,B. signalgrass plant response rating,surinam grass; [11],0
same,B. signalgrass plant response rating,surinam grass; [2],0
same,B. signalgrass plant response rating,surinam grass; [3],0
same,B. signalgrass plant response rating,surinam grass; [4],0
same,"Plant response rating, B. signalgrass",surinam grass; [5],0
same,"Plant response rating, B. signalgrass",surinam grass; [6],0
same,B. signalgrass plant response rating,surinam grass; [7],0
same,B. signalgrass plant response rating,surinam grass; [12],0
same,Redroot pigweed plant response rating,pigweed; [1],0
same,Redroot pigweed plant response rating,pigweed; [3],0
same,Redroot pigweed plant response rating,pigweed; [4],0
same,"Plant response rating, Redroot pigweed",pigweed; [5],0
same,"Plant response rating, Redroot pigweed",pigweed; [6],0
same,Redroot pigweed plant response rating,pigweed; [7],0
same,Redroot pigweed plant response rating,pigweed; [8],0
same,"Plant response rating, Redroot pigweed",pigweed; [10],0
same,Rape plant response rating,rape; [1],0
same,Rape plant response rating,rape; [2],0
same,Rape plant response rating,rape; [3],0
same,Rape plant response rating,rape; [4],0
same,"Plant response rating, Rape",rape; [5],0
same,"Plant response rating, Rape",rape; [6],0
same,Rape plant response rating,rape; [7],0
same,Rape plant response rating,rape; [8],0
same,Bedstraw plant response rating,bedstraw; [11],0
same,Bedstraw plant response rating,bedstraw; [2],0
same,Bedstraw plant response rating,bedstraw; [4],0
same,"Plant response rating, Bedstraw",bedstraw; [6],0
same,Bedstraw plant response rating,bedstraw; [7],0
same,Bedstraw plant response rating,bedstraw; [12],0
same,Crabgrass plant response rating,crabgrass; [1],0
same,Crabgrass plant response rating,crabgrass; [2],0
same,Crabgrass plant response rating,crabgrass; [3],0
same,Crabgrass plant response rating,crabgrass; [4],0
same,"Plant response rating, Crabgrass",crabgrass; [5],0
same,"Plant response rating, Crabgrass",crabgrass; [6],0
same,Crabgrass plant response rating,crabgrass; [7],0
same,Crabgrass plant response rating,crabgrass; [8],0
same,Corn plant response rating,corn; [1],0
same,Corn plant response rating,corn; [2],0
same,Corn plant response rating,corn; [3],0
same,Corn plant response rating,corn; [4],0
same,"Plant response rating, Corn",corn; [5],0
same,"Plant response rating, Corn",corn; [6],0
same,Corn plant response rating,corn; [7],0
same,Corn plant response rating,corn; [8],0
CC(C)N(C(=O)n1oc(=O)n(C(C)C(=S)N(C)C)c1=O)c1ccc(Cl)cc1 (stereo not shown) [Compound 733],Giant foxtail plant response rating,giant foxtail; [13],3
same,"Plant response rating, Giant foxtail",giant foxtail; [14],6
same,Giant foxtail plant response rating,giant foxtail; [15],9
same,Giant foxtail plant response rating,giant foxtail; [16],9
same,Cocklebur plant response rating,cocklebur; [13],0
same,"Plant response rating, Cocklebur",cocklebur; [14],0
same,Cocklebur plant response rating,cocklebur; [15],0
same,Cocklebur plant response rating,cocklebur; [16],0
same,Nutsedge plant response rating,purple nutsedge; [13],0
same,"Plant response rating, Nutsedge",purple nutsedge; [14],0
same,Nutsedge plant response rating,purple nutsedge; [15],0
same,Velvetleaf plant response rating,velvetleaf; [13],0
same,"Plant response rating, Velvetleaf",velvetleaf; [14],0
same,Velvetleaf plant response rating,velvetleaf; [15],0
same,Velvetleaf plant response rating,velvetleaf; [16],1
same,Soybean plant response rating,soybean; [13],0
same,"Plant response rating, Soybean",soybean; [14],0
same,Soybean plant response rating,soybean; [15],0
same,Soybean plant response rating,soybean; [16],0
same,Sugarbeets plant response rating,sugar beet; [13],0
same,"Plant response rating, Sugarbeets",sugar beet; [14],0
same,Sugarbeets plant response rating,sugar beet; [15],0
same,Sugarbeets plant response rating,sugar beet; [16],0
same,Morningglory plant response rating,morningglory; [13],1
same,"Plant response rating, Morningglory",morningglory; [14],1
same,Morningglory plant response rating,morningglory; [15],2
same,Morningglory plant response rating,morningglory; [16],2
same,Wild oats plant response rating,wild oat; [13],2
same,"Plant response rating, Wild oats",wild oat; [14],2
same,Wild oats plant response rating,wild oat; [15],2
same,Wild oats plant response rating,wild oat; [16],8
same,Blackgrass plant response rating,blackgrass; [13],4
same,"Plant response rating, Blackgrass",blackgrass; [14],7
same,Blackgrass plant response rating,blackgrass; [15],8
same,Blackgrass plant response rating,blackgrass; [16],10
same,Wheat plant response rating,wheat; [13],0
same,"Plant response rating, Wheat",wheat; [14],0
same,Wheat plant response rating,wheat; [15],0
same,Wheat plant response rating,wheat; [16],0
same,B. signalgrass plant response rating,surinam grass; [13],6
same,"Plant response rating, B. signalgrass",surinam grass; [14],6
same,B. signalgrass plant response rating,surinam grass; [15],8
same,B. signalgrass plant response rating,surinam grass; [16],10
same,Redroot pigweed plant response rating,pigweed; [13],0
same,"Plant response rating, Redroot pigweed",pigweed; [14],0
same,Redroot pigweed plant response rating,pigweed; [15],5
same,Redroot pigweed plant response rating,pigweed; [16],7
same,Rape plant response rating,rape; [13],0
same,"Plant response rating, Rape",rape; [14],0
same,Rape plant response rating,rape; [15],3
same,Rape plant response rating,rape; [16],5
same,Bedstraw plant response rating,bedstraw; [13],0
same,"Plant response rating, Bedstraw",bedstraw; [14],0
same,Bedstraw plant response rating,bedstraw; [15],0
same,Bedstraw plant response rating,bedstraw; [16],0
same,Crabgrass plant response rating,crabgrass; [13],2
same,"Plant response rating, Crabgrass",crabgrass; [14],5
same,Crabgrass plant response rating,crabgrass; [15],9
same,Crabgrass plant response rating,crabgrass; [16],9
same,Corn plant response rating,corn; [13],0
same,"Plant response rating, Corn",corn; [14],0
same,Corn plant response rating,corn; [15],0
same,Corn plant response rating,corn; [16],0
